# Test results from ChEMBL document CHEMBL1141452, “Advances in development of dopaminergic aporphinoids” (J Med Chem, 2007).
# Key:
# [1] = system: PC-12; assay: Reduction of dopamine level in catecholamine-inducing rat PC12 cells; format: functional, cell-based
# [2] = Inhibition of rat midbrain dopaminergic neuron firing; format: functional; settings: read-out: ID50 (the source's name)
# [3] = molecular target: Tyrosine 3-monooxygenase (Rattus norvegicus) (UniProt P04177); assay: Inhibition of tyrosine hydroxylase
# Tyrosine 3-monooxygenase (Rattus norvegicus), sequence (P04177 whole entry, looked up): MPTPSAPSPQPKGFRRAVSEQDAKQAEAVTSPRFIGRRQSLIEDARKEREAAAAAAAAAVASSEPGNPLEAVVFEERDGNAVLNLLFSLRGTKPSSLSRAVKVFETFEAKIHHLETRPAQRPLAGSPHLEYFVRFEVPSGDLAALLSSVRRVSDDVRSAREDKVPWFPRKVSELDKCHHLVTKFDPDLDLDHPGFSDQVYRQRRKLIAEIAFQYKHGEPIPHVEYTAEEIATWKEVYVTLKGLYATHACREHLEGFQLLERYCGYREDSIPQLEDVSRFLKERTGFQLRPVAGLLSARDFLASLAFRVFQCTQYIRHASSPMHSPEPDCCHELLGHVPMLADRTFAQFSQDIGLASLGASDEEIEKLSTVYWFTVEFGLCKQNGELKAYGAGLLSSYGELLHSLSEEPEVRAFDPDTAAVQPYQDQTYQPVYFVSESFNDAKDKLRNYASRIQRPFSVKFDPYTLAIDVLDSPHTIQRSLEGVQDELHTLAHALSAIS
# [4] = molecular target: D(2) dopamine receptor (Rattus norvegicus, UniProt P61169); assay: Displacement of [3H]raclopride from rat dopamine D2 receptor
# D(2) dopamine receptor, sequence (P61169 whole entry): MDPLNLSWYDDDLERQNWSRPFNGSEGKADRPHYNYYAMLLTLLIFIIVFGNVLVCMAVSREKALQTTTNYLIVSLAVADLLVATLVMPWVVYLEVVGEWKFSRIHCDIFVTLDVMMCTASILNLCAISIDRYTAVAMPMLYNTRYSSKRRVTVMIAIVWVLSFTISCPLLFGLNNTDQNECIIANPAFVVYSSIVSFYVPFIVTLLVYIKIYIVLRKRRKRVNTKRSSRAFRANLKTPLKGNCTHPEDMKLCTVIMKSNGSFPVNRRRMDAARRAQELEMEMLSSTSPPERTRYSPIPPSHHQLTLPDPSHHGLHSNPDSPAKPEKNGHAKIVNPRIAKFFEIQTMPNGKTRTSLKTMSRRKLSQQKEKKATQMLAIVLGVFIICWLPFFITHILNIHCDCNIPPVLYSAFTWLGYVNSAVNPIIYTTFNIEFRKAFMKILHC
# [5] = molecular target: 5-hydroxytryptamine receptor 7 (Rattus norvegicus) (UniProt P32305); assay: Displacement of [3H]5-HT from rat 5-HT7 receptor
# 5-hydroxytryptamine receptor 7 (Rattus norvegicus), sequence (P32305 whole entry, looked up): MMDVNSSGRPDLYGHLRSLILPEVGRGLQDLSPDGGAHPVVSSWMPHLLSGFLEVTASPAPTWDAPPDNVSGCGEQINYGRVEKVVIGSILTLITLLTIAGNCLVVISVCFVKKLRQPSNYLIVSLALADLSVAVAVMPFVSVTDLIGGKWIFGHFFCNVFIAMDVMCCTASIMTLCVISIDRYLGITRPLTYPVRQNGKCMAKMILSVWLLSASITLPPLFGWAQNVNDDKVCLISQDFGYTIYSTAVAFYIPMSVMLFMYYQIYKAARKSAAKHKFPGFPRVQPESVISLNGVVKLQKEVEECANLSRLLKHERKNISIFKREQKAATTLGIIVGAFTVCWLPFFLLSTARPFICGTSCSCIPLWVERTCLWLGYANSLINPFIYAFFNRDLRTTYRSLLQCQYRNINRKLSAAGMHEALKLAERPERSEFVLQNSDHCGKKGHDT
# [6] = molecular target: T1, 5-hydroxytryptamine receptor 1A (Rattus norvegicus, UniProt P19327); assay: Displacement of [3H]8-OH-DPAT from rat 5HT1A receptor
# T1 sequence (P19327 whole entry): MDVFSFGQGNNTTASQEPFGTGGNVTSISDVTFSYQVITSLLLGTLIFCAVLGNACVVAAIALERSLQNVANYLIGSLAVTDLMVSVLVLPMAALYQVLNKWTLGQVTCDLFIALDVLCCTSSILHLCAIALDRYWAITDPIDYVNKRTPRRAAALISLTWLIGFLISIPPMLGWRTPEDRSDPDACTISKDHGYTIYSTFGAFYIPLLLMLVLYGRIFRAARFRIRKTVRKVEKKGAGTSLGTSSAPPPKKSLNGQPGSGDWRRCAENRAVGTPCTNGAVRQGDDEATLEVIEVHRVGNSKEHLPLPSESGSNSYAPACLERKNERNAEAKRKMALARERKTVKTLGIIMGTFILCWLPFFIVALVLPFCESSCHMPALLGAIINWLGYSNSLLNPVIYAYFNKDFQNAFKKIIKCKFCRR
# [7] = molecular target: 5-hydroxytryptamine receptor 7 (Homo sapiens, UniProt P34969); assay: Binding affinity at 5HT7 receptor
# 5-hydroxytryptamine receptor 7, sequence (P34969 whole entry): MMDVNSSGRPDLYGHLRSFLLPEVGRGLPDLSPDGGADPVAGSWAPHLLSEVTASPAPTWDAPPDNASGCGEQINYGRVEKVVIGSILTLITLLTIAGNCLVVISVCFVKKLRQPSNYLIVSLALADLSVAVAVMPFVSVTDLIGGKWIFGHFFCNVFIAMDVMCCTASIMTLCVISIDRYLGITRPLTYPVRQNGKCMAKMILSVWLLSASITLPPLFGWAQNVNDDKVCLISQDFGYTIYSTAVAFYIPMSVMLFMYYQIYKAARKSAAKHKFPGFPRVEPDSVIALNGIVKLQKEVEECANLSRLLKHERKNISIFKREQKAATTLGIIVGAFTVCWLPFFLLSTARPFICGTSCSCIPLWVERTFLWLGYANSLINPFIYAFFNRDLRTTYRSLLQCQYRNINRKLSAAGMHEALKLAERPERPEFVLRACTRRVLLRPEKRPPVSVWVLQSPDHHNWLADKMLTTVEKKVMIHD
# [8] = system: Rattus norvegicus; assay: Inhibition of apomorphine-induced penile erection in rat at 40 mg/kg, ip; format: functional; set-up: scale not given: the % may be the effect or the level left; settings: route intraperitoneal
# [9] = system: Rattus norvegicus; assay: Inhibition of apomorphine-induced yawning in rat at 40 mg/kg, ip; format: functional; set-up: scale not given: the % may be the effect or the level left; settings: route intraperitoneal
# [10] = system: Rattus norvegicus; assay: Displacement of [3H]SCH-23390 from rat dopamine D1 receptor at 40 mg/kg, ip; format: functional; settings: route intraperitoneal
# [11] = molecular target: Tyrosine 3-monooxygenase (Homo sapiens, UniProt P07101); assay: Inhibition of tyrosine hydroxylase
# Tyrosine 3-monooxygenase, sequence (P07101 whole entry): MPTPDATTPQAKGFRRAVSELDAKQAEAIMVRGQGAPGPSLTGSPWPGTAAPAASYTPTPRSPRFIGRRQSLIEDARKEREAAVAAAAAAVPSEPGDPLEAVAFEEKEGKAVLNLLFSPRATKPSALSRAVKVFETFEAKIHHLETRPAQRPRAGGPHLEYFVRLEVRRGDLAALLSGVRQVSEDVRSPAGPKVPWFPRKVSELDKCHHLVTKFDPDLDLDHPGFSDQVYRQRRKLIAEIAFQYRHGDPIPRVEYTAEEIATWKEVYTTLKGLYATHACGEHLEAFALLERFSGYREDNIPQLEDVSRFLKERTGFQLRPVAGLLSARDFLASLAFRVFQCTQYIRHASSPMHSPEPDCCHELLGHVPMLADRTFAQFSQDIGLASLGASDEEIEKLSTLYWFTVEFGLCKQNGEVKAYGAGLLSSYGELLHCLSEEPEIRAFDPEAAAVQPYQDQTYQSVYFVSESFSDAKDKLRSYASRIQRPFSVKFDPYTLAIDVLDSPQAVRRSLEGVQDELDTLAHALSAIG
# [12] = molecular target: Sodium-dependent dopamine transporter (Rattus norvegicus, UniProt P23977); assay: Displacement of [3H]DA from rat DAT
# Sodium-dependent dopamine transporter, sequence (P23977 whole entry): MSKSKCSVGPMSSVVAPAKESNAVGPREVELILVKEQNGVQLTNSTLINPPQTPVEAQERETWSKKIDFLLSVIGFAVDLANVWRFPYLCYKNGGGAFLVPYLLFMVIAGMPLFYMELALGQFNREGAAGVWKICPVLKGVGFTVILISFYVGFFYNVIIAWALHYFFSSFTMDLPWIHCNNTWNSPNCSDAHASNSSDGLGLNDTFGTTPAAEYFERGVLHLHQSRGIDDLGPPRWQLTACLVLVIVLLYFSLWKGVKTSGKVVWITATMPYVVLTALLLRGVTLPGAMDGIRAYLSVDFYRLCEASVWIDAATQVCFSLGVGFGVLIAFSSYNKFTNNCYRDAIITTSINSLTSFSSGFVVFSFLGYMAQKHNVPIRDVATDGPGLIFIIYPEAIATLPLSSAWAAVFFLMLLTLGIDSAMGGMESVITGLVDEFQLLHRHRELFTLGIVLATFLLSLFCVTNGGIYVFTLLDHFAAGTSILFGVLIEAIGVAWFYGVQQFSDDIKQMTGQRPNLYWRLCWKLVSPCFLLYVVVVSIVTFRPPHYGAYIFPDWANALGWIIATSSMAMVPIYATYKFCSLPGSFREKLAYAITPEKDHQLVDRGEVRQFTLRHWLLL
# [13] = molecular target: D(1A) dopamine receptor (Rattus norvegicus, UniProt P18901); assay: Displacement of [3H]SCH-23390 from rat dopamine D1 receptor
# D(1A) dopamine receptor, sequence (P18901 whole entry): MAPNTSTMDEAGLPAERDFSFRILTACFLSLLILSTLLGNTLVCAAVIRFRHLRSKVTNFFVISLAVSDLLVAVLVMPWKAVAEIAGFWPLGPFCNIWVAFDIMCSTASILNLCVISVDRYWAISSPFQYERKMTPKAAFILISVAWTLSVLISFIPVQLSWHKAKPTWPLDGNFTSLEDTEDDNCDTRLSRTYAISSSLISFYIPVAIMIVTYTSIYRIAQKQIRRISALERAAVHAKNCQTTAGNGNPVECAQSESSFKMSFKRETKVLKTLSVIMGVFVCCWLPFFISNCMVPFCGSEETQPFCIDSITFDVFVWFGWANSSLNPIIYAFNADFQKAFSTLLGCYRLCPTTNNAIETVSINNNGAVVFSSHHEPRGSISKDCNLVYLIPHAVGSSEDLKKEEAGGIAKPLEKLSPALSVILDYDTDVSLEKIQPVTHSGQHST
# [14] = system: Cerebrum; assay: Inhibition of lipid peroxidation in rat cerebrum; format: functional, tissue-based
# [15] = system: Rattus norvegicus; assay: Displacement of [3H]raclopride from rat dopamine D2 receptor at 40 mg/kg, ip; format: functional; settings: route intraperitoneal
smiles,measurement,setting,value
COc1ccc2c(c1O)-c1c3c(cc4c1[C@H](C2)N(C)CC4)OCO3 [(S)-BULBOCAPNINE],IC50,[1],27000 nM
CCCN1CCc2cccc3c2[C@@H]1Cc1ccc(O)c(O)c1-3,ED50,[2],1.6 µmol/kg
same,IC50,[3],1000 nM
CN1CCc2cccc3c2[C@H]1Cc1ccc(O)c(O)c1-3 [APOMORPHINE],ED50,[2],0.018 µmol/kg
CN1CCc2ccc3[nH]c(=O)c4cccc5c4c3c2[C@H]1C5,Ki,[4],55 nM
same,Ki,[5],55 nM
same,Ki,[6],180 nM
same,Ki,[7],55 nM
CCCN1CCc2cccc3c2[C@H]1Cc1ccc(O)c(O)c1-3 [R-N-PROPYLNORAPOMORPHINE],ED50,[2],0.002 µmol/kg
same,IC50,[3],300 nM
COc1cc2c(cc1O)C[C@H]1c3c(cc(O)c(OC)c3-2)CCN1C [BOLDINE],Activity,[8],50%
same,Activity,[9],50%
same,Activity,[10],25%
CCCN1CCc2cccc3c2[C@@H]1Cc1cccc(O)c1-3,IC50,[11],87000 nM
CN1CCc2cc3c(c4c2C1Cc1cccc(O)c1-4)OCO3 (stereo unspecified) [PUKATEINE],IC50,[12],46000 nM
same,IC50,[13],400 nM
same,IC50,[4],600 nM
same,IC50,[14],15000 nM
CCCN1CCc2cccc3c2[C@H]1Cc1cccc(O)c1-3,ED50,[2],0.0047 µmol/kg
same,IC50,[11],42000 nM
COc1cc2c(cc1OC)-c1c(OC)c(OC)cc3c1[C@H](C2)N(C)CC3 [GLAUCINE],Activity,[8],50%
same,Ki,[13],2900 nM
same,Ki,[4],2800 nM
same,Activity,[9],50%
same,Activity,[10],50%
same,Activity,[15],50%
